Experimental data: PubChem BioAssay AID463074 (Broad Institute, 2010)
Activity calls are given as the source filed them.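 The calls were made as follows: active = AC50 no more than tenfold above the top dose tested, or full inhibition at every dose with a flat fit (cut at about 19 µM in these data); inconclusive = flat curve fit with inhibition between 30% and 70%, or poor fit; inactive = AC50 more than tenfold above the top dose tested.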

Tested on: HMLE_sh_eGFP viability, CellTiter-Glo luminescence, 72 h
Experiment: cytotoxicity in HMLE control line with eGFP shRNA, dose response, counter-screen for HMLE_sh_ECad selective toxicity project, cell-based, HMLE_sh_eGFP, luminescence (AID 463074);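 also: counterscreen control line to flag general toxicity for the HMLE_sh_ECad screen; potency for loss of viability as luminescence drops below DMSO wells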

| SMILES | AC50 |
| --- | --- |
| CC1(O)CC(c2ccc(Cl)cc2)=NN1C(=O)c1ccc([N+](=O)[O-])cc1 (centres undefined) | 6.72 µM |
| O=C(Nc1ccc2c(c1)CCC2)c1cc(S(=O)(=O)Nc2ccc(F)cc2)c(Cl)cc1Cl | 5.38 µM |
| CC(C)(C)c1cc(-c2nc(N)nc(N)n2)c(O)c(C(C)(C)C)c1 | 3.57 µM |
| Cc1ccc(S(=O)(=O)N2[C@@H](c3ccc(C(C)(C)C)cc3)C(C(=O)O)=CC[C@H]2c2cccc(Cl)c2)cc1 | 4.26 µM |
| CC1=NN(c2ccccc2)C(=O)/C1=C/c1c(O)n(-c2ccc(F)cc2)[nH]c1=O | 15.8 µM |
| O=S(=O)(c1cnc(Cl)c(Br)c1)N1CCc2ccccc21 | 6.77 µM |
| Cc1ccc(N2C(=O)C3C4C=CC(CC4)C3C2=O)cc1Br (centres undefined) | 1.38 µM |
| COc1ccc(/C=C2/C(=O)N(c3nc4ccccc4s3)N=C2CSc2ccc(Cl)cc2)cc1 | 6.5 µM |
| O=C(Nc1ccccc1)C1=C[C@@H](c2csc3ccccc23)C[C@@H](OCc2ccc(CO)cc2)O1 | 4.11 µM |
| O=C(CSCc1cccc(Br)c1)N/N=C/c1ccc2c(c1)OCO2 | 5.34 µM |
| CSc1nnc(NC(=O)c2nc(S(=O)(=O)Cc3ccccc3F)ncc2Cl)s1 | 2.92 µM |
| CC1=[N+](C)c2ccc3ccccc3c2C1(C)C | > 19.5 µM (inactive) |
| Cc1ccc(C)c(NC(=O)c2cc(-c3ccccc3)nn2-c2ccccc2)c1 | 6.27 µM |
| CC(CNC(=S)Nc1cc(F)cc(F)c1)CSc1ccc(Cl)cc1 (centres undefined) | 6.55 µM |
| CC(C)c1ccc(NC(=O)C(c2ccccc2)N(C)C(=O)CCc2c[nH]c3ccccc23)cc1 (centres undefined) | 7.92 µM |
| CC(=O)Oc1ccc(C2=NN(c3ccccc3)C(c3ccccc3)C2)cc1 (centres undefined) | 4.18 µM |
| Oc1ccc(-c2csc(Nc3ccccn3)n2)c(O)c1 | 3.93 µM |
| O=C(Nc1ccc(-c2csc(Nc3cccc(C(F)(F)F)c3)n2)cc1)c1cc([N+](=O)[O-])cc(C(F)(F)F)c1 | 1.93 µM |
| Cc1ccc(N/N=C/c2cccnc2)cc1 | 6.14 µM |
| Cc1ccc(COc2ccccc2-c2cc(C(=O)N/N=C/c3cccnc3)[nH]n2)cc1 | 12.6 µM |
| CCN(CC)c1ccc(S(=O)(=O)Nc2cc(Cl)ccc2Cl)cc1NC(=S)NC(=O)C1CCCC1 | 2.06 µM |
| C[C@@H]1CN([C@H](C)CO)C(=O)c2cc(NC(=O)Nc3ccc(C(F)(F)F)cc3)ccc2O[C@H]1CN(C)S(=O)(=O)c1ccc(Cl)cc1 | 3.84 µM |
| COC(=O)c1c(NC(=O)c2ccco2)sc2c1CCC2 | > 19.5 µM (inactive) |
| CN(C)c1ccc(-c2cc([C@H]3[C@@H]4C=CCC[C@@]4(C)C(=O)N3Cc3ccccc3)ccc2F)cc1 | 6.46 µM |
| CC(C)(Sc1ccc(CCN(CCCCC2CCCCC2)C(=O)NC2CCCCC2)cc1)C(=O)O | 5.57 µM |

| SMILES | AC50 |
| --- | --- |
| COc1ccc(C[C@H]2CN3C(=NC[C@@H]3Cc3ccccc3)N2CCNC(=O)CCC2CCCCC2)cc1 | 7.04 µM |
| CC(C)(C)c1ccc(C(=O)NC(=S)Nc2nc3c(s2)CCCC3)cc1 | 2.18 µM |
| CCN1CCN(c2ccc(NC(=O)CCc3c(C)nc4c(-c5ccc(F)cc5)c(C)nn4c3C)cc2)CC1 | 5.22 µM |
| N#C/C(=C/c1cn(-c2ccccc2)nc1-c1cccc(OCc2ccc(F)cc2)c1)C(=O)NCCCn1ccnc1 | 3.4 µM |
| COc1ccc(-c2cc(C(=O)N3CC4(C)CC3CC(C)(C)C4)no2)cc1 (centres undefined) | 1.43 µM |
| Cc1cc(C)cc(NS(=O)(=O)c2ccc(Oc3ncc(C(F)(F)F)cc3Cl)cc2)c1 | 4.3 µM |
| C=C(C)C1Cc2c(C)nn(-c3cccc4ccccc34)c2C1 (centres undefined) | 7.55 µM |
| CCOC(=O)c1c(NC(=O)C(=O)N/N=C/c2ccccc2O)sc2c1CCCCC2 | 2.84 µM |
| O=C(Nc1cccc(S(=O)(=O)Nc2ccc(Cl)cc2)c1)c1cc2c(s1)CCCC2 | 2.79 µM |
| COCCCn1c(SCc2cccc(C(F)(F)F)c2)nc2cc(OC)c(OC)cc2c1=N | 4.75 µM |
| Cc1ccc(-c2cc(C(=O)N3CCN(c4ccc(O)cc4)CC3)c3ccccc3n2)cc1 | 8.38 µM |
| O=C(N/N=C/c1cccc(O)c1)c1ccc(COc2ccccc2Br)cc1 | 6.42 µM |
| CCCN1CCc2c(sc(NC(=O)c3ccc(S(=O)(=O)N(C)c4ccccc4)cc3)c2C(=O)NC)C1 | 5.34 µM |
| c1ccc(-c2sc3ccccc3c2-c2ccc(OCCN3CCOCC3)cc2)cc1 | 3.24 µM |
| COc1ccc(C(=O)c2ccc3oc(-c4ccc(OC)cc4)c(-c4ccc(O)cc4)c3c2)cc1 | 3.87 µM |
| c1ccc(CN2CCN(c3nc(NCc4ccco4)c4ccccc4n3)CC2)cc1 | 4.22 µM |
| Cc1ccc(OCCSc2nc(NC(C)C)nc(NC(C)C)n2)cc1 | 1.46 µM |
| Cc1ccccc1-c1ccc(CN2CCN(C)C(CCO)C2)cc1 (centres undefined) | 5.43 µM |
| C[C@H](CO)N1C[C@H](C)[C@@H](CN(C)S(=O)(=O)c2ccc(F)cc2)Oc2ccc(NC(=O)Nc3ccc(C(F)(F)F)cc3)cc2C1=O | 17.1 µM |
| CCN1C(=O)C(CC(=O)Nc2ccc(F)cc2)N(CCCN2CCN(c3ccc(F)cc3)CC2)C1=S (centres undefined) | 6.83 µM |
| Cc1cc(C)cc(NC(=O)CSc2ccc(-c3ccccn3)nn2)c1 | 3.61 µM |
| O=C(N/C=N/OCc1ccc(Cl)cc1Cl)NOCc1ncc(C(F)(F)F)cc1Cl | 5.04 µM |
| O=S(=O)(c1ccc(Cl)cc1)N1CCC(n2cnc3cc(C(F)(F)F)ccc32)CC1 | 4 µM |
| O=c1[nH]c(NNC(=S)NCc2ccccc2)nc2c1C1(CCCCC1)Cc1ccccc1-2 | 3.91 µM |
| Oc1ccccc1N1CCN(c2ncnc3sc(-c4ccccc4)cc23)CC1 | 3.53 µM |

| SMILES | AC50 |
| --- | --- |
| COc1ccc(-c2oc3ccc(N4CCOCC4)cc3c2C#CCO)cc1 | 10.4 µM |
| Cc1ccc(C(=O)Nc2nc(C)c(C(=O)Nc3ccc4c(c3)CCC4)s2)cc1 | 18.8 µM |
| CCCCCCc1cc2cc(C(=O)Nc3ccccc3)c(=O)oc2cc1O | 2.01 µM |
| O=C(CCc1ccccc1)Nc1sc2c(c1C(=O)O)CCCC2 | > 19.5 µM (inactive) |
| O=c1oc2ccccc2c(O)c1Cc1cc(Cl)c2cccnc2c1O | 4.9 µM |
| CC(C)CC(=O)NC(NC(=S)Nc1sc2c(c1C#N)CCCC2)C(Cl)(Cl)Cl (centres undefined) | 10.6 µM |
| COC(=O)c1cccc(Nc2cc(C)nc(-c3ccccc3O)n2)c1 | 8.82 µM |
| CCCOC(=O)C(=O)NNc1ccccc1 | 1.81 µM |
| CC(C)=CCc1c(O)cc2c(c1O)C(=O)CC(c1ccc(O)cc1)O2 (centres undefined) | 3.74 µM |
| Cc1c(C2(O)CCCCC2)[nH]c2ccc(C(F)(F)F)cc12 | 6.11 µM |
| O=c1cc(-c2ccccc2)[nH]n1-c1nc2ccccc2s1 | 5.53 µM |
| CC(/C=C1\SC(=O)N(CC(=O)Nc2cccc(O)c2)C1=O)=C\c1ccccc1 | 13.6 µM |
| COc1ccccc1OCCN1CSC(=S)N(C)C1 | 5.24 µM |
| CCOC(=O)c1c(C)[nH]c(C(=O)N/N=C\c2ccccc2O)c1C | 8.76 µM |
| CCN(CC)c1nc(SCCOC(=O)Nc2ccccc2)nc(N(CC)CC)n1 | 4.58 µM |
| COc1cccc(/C=N/NC(=O)CSc2nnc(C)n2-c2ccccc2)c1O | 5.01 µM |
| CCN(CC)c1ccc2cc(S(=O)(=O)c3ccc(Cl)cc3)c(=O)oc2c1 | 4.98 µM |
| O=[N+]([O-])c1cccc(-c2cc(-c3cc(Br)ccc3O)[nH]n2)c1 | 7.53 µM |
| O=C(/C(=C\c1ccccc1)c1nc2ccccc2[nH]1)c1ccc(Cl)cc1 | 3.27 µM |
| Cc1cc(OCc2cc(C(=O)N3CCC(Oc4cccnc4)CC3)no2)cc(C)c1Cl | 8.31 µM |
| O=[N+]([O-])c1ccccc1-c1ccc(C(=S)N2CCN(c3ccccc3)CC2)o1 | > 19.5 µM (inactive) |
| Cc1cc(/C=C2\SC(=S)N(Cc3ccco3)C2=O)c(C)n1-c1ccccc1 | 2.92 µM |
| CC(C)(C)c1ccc(Oc2ccc(NC(=O)c3cccs3)cn2)cc1 | 2.88 µM |
| O=C(Nc1ccc(Oc2c(F)c(F)c(F)c(F)c2F)cc1)OC1CCN2Cc3ccccc3N=C12 (centres undefined) | 1.21 µM |
